Measurements as given in patent US20070066627A1, “Hydrazone derivatives for combatting harmful insects and arachnids” (priority 2004, published 2007).

How the values were obtained:
Type in all cases: in vivo
[1] = tested on: Southern Armyworm (Spodoptera eridania), 2nd Instar Larvae; test: Southern armyworm leaf-dip test, 2nd instar larvae; details: foliar, 120 h, observation at 5 days, read-out: mortality in comparison with untreated controls
Method: 2.1 Southern Armyworm (Spodoptera eridania), 2nd Instar Larvae
The active compounds were formulated for testing the activity against insects and arachnids as a 10.000 ppm solution in a mixture of 35% acetone and water, which was diluted with water, if needed.
A Sieva lima bean leaf expanded to 78 cm in length is dipped in the test solution with agitation for 3 seconds and allowed to dry in a hood. The leaf is then placed in a 100×10 mm petri dish containing a damp filter paper on the bottom and ten 2nd instar caterpillars. At 5 days, observations are made of mortality, reduced feeding, or any interference with normal molting.

Bean Aphid (aphis fabae) = test: Bean aphid test on nasturtium plants; details: 72 h, plant dipped, after 3 days, read-out: mortality in comparison with untreated controls
Description: 2.4 Bean Aphid (aphis fabae)
(§1) The active compounds were formulated in 50:50 acetone:water and 100 ppm Kinetic® surfactant.
Nasturtium plants grown in Metro mix in the 1st leaf-pair stage (variety ‘Mixed Jewle’) were infested with approximately 2-30 laboratory-reared aphids by placing infested cut plants on top of the test plants. The cut plants were removed after 24 hr. Each plant was dipped into the test solution to provide complete coverage of the foliage, stem, protruding seed surface and surrounding cube surface and allowed to dry in the fume hood. The treated plants were kept at about 25° C. with continuous fluorescent light. Aphid mortality was determined after 3 days.

[2] = tested on: Green Peach Aphid (Myzus persicae); test: Green peach aphid test on pepper plants; details: 120 h, leaves dipped, after 5 days, read-out: mortality in comparison with untreated controls
Description: 2.3 Green Peach Aphid (Myzus persicae)
as §1
Pepper plants in the 2nd leaf-pair stage (variety ‘California Wonder’) were infested with approximately 40 laboratory-reared aphids by placing infested leaf sections on top of the test plants. The leaf sections were removed after 24 hr. The leaves of the intact plants were dipped into gradient solutions of the test compound and allowed to dry.
Test plants were maintained under fluorescent light (24 hour photoperiod) at about 25° C. and 20-40% relative humidity. Aphid mortality on the treated plants, relative to mortality on check plants, was determined after 5 days.

[3] = tested on: Silverleaf Whitefly (bemisia argentifolii); test: Silverleaf whitefly test on cotton plants; details: 72 h, cotyledons dipped, adults, 3 days after treatment, read-out: mortality compared to untreated controls
Method: 2.5 Silverleaf Whitefly (bemisia argentifolii)
as §1
Selected cotton plants were grown to the cotyledon state (one plant per pot). The cotyledons were dipped into the test solution to provide complete coverage of the foliage and placed in a well-vented area to dry. Each pot with treated seedling was placed in a plastic cup and 10 to 12 whitefly adults (approximately 3-5 day old) were introduced. The insects were collected using an aspirator and an 0.6 cm, non-toxic Tygon® tubing (R-3603) connected to a barrier pipette tip. The tip, containing the collected insects, was then gently inserted into the soil containing the treated plant, allowing insects to crawl out of the tip to reach the foliage for feeding. The cups were covered with a reusable screened lid (150 micron mesh polyester screen PeCap from Tetko Inc). Test plants were maintained in the holding room at about 25° C. and 20-40% relative humidity for 3 days avoiding direct exposure to the fluorescent light (24 hour photoperiod) to prevent trapping of heat inside the cup. Mortality was assessed 3 days after treatment of the plants.

[4] = tested on: Cotton Aphid (aphis gossypii); test: Cotton aphid test on cotton cotyledons; details: 120 h, cotyledons dipped, after 5 days, read-out: mortality in comparison with untreated controls
Description: 2.2 Cotton Aphid (aphis gossypii)
as §1
Cotton plants at the cotyledon stage (one plant per pot) were infested by placing a heavily infested leaf from the main colony on top of each cotyledon. The aphids were allowed to transfer to the host plant overnight, and the leaf used to transfer the aphids was removed. The cotyledons were dipped in the test solution and allowed to dry. After 5 days, mortality counts were made.

## CC(C=NNC(=O)Cc1ccccc1)=Cc1ccccc1 [Compound 18]
[1]
  mortality at 300 ppm: > 80%
Bean Aphid (aphis fabae)
  mortality at 300 ppm: > 75%

## CC(C=NNC(=O)Cc1ccccc1)=Cc1cccc(F)c1 [Compound 19]
[2]
  mortality at 300 ppm: > 75%

## COc1ccc(CC(=O)NN=CC(C)=Cc2ccc(F)cc2)cc1OC [Compound 20]
[2]
  mortality at 300 ppm: > 75%

## CC(C=NNC(=O)c1cccs1)=Cc1ccccc1 [Compound 50]
[3]
  mortality at 300 ppm: > 80%

## O=C(NN=CC(Cl)=Cc1ccccc1)c1cccs1 [Compound 69]
Bean Aphid (aphis fabae)
  mortality at 300 ppm: > 75%

## CC(C=NNC(=O)c1cccs1)=Cc1cccc(F)c1 [Compound 70]
[4]
  mortality at 300 ppm: > 75%

## CC(C=NNC(=O)c1cccs1)=Cc1ccc(F)cc1 [Compound 71]
[4]
  mortality at 300 ppm: > 75%
Bean Aphid (aphis fabae)
  mortality at 300 ppm: > 75%

## CC(C=NNC(=O)c1sccc1C)=Cc1ccccc1 [Compound 76]
[2]
  mortality at 300 ppm: > 75%

## O=C(NN=CC(Cl)=Cc1ccccc1)c1ccc(Cl)s1 [Compound 97]
[1]
  mortality at 300 ppm: > 80%

## O=C(NN=CC(Cl)=Cc1ccccc1)c1ccco1 [Compound 120]
[4]
  mortality at 300 ppm: > 75%

## CC(C=NNC(=O)c1ccco1)=Cc1ccccc1 [Compound 121]
[4]
  mortality at 300 ppm: > 75%

## CCC(C=NNC(=O)c1ccco1)=Cc1ccccc1 [Compound 126]
[4]
  mortality at 300 ppm: > 75%
Bean Aphid (aphis fabae)
  mortality at 300 ppm: > 75%

## CC(C=NNC(=O)c1ccco1)=Cc1ccc(Cl)cc1 [Compound 128]
[2]
  mortality at 300 ppm: > 75%

## O=C(NN=CC=Cc1ccccc1F)c1ccco1 [Compound 130]
[4]
  mortality at 300 ppm: > 75%

## CC(C=NNC(=O)c1ccco1)=Cc1cccc(F)c1 [Compound 131]
[4]
  mortality at 300 ppm: > 75%

## CC(C=NNC(=O)c1cc(C)nn1C)=Cc1ccccc1 [Compound 152]
[2]
  mortality at 300 ppm: > 75%

## O=C(NN=CC(Cl)=Cc1ccccc1)c1ccccn1 [Compound 157]
[4]
  mortality at 300 ppm: > 75%
Bean Aphid (aphis fabae)
  mortality at 300 ppm: > 75%

## CC(C=NNC(=O)c1ccccn1)=Cc1ccc(F)cc1 [Compound 158]
[3]
  mortality at 300 ppm: > 80%

## CC(C=NNC(=O)c1ccccn1)=Cc1cccc(F)c1 [Compound 159]
[4]
  mortality at 300 ppm: > 75%
Bean Aphid (aphis fabae)
  mortality at 300 ppm: > 75%

## CC(C=NNC(=O)c1cccnc1)=Cc1ccccc1 [Compound 160]
[1]
  mortality at 300 ppm: > 80%

## CC(C=NNC(=O)c1cccnc1)=Cc1cccc(C(F)(F)F)c1 [Compound 161]
[1]
  mortality at 300 ppm: > 80%

## O=C(NN=CC(Cl)=Cc1ccccc1)c1cccnc1 [Compound 162]
[1]
  mortality at 300 ppm: > 80%

## CC(C=NNC(=O)c1cnccc1C(F)(F)F)=Cc1ccccc1 [Compound 168]
Bean Aphid (aphis fabae)
  mortality at 300 ppm: > 75%

## CC(C=NNC(=O)c1cnccc1C(F)(F)F)=Cc1ccc(F)cc1 [Compound 169]
Bean Aphid (aphis fabae)
  mortality at 300 ppm: > 75%

## O=C(NN=CC(Cl)=Cc1ccccc1)c1ccncc1 [Compound 170]
Bean Aphid (aphis fabae)
  mortality at 300 ppm: > 75%

## CC(C=NNC(=O)c1ccncc1)=Cc1ccccc1 [Compound 171]
Bean Aphid (aphis fabae)
  mortality at 300 ppm: > 75%

## CC(C=NNC(=O)c1ccncc1)=Cc1cccc(F)c1 [Compound 173]
[2]
  mortality at 300 ppm: > 75%

## CC(C=NNC(=O)c1cnccn1)=Cc1ccccc1 [Compound 177]
[1]
  mortality at 300 ppm: > 80%

## CC(C=NNC(=O)c1ccccc1)=Cc1ccc(F)cc1 [Compound 181]
[4]
  mortality at 300 ppm: > 75%

## CC(C=NNC(=O)c1ccc(O)cc1)=Cc1ccc(F)cc1 [Compound 184]
Bean Aphid (aphis fabae)
  mortality at 300 ppm: > 75%

## COc1ccc(C(=O)NN=CC(C)=Cc2ccccc2)cc1OC [Compound 185]
[1]
  mortality at 300 ppm: > 80%

## COc1ccccc1C(=O)NN=CC(C)=Cc1ccc(F)cc1 [Compound 186]
[2]
  mortality at 300 ppm: > 75%

## COc1ccccc1C(=O)NN=CC(C)=Cc1cccc(F)c1 [Compound 187]
[3]
  mortality at 300 ppm: > 80%

## CCC(C=NNC(=O)c1ccc(F)cc1)=Cc1ccccc1 [Compound 189]
[3]
  mortality at 300 ppm: > 80%

## CC(C=NNC(=O)c1ccc(F)cc1)=Cc1ccccc1 [Compound 190]
[1]
  mortality at 300 ppm: > 80%

## CC(C=NNC(=O)c1ccc(F)cc1)=Cc1ccc(F)cc1 [Compound 191]
Bean Aphid (aphis fabae)
  mortality at 300 ppm: > 75%

## O=C(NN=CC(Br)=Cc1ccccc1)c1ccccc1F [Compound 192]
[1]
  mortality at 300 ppm: > 80%

## CCC(C=NNC(=O)c1ccccc1F)=Cc1ccccc1 [Compound 193]
[3]
  mortality at 300 ppm: > 80%

## CC(C=NNC(=O)c1ccccc1F)=Cc1ccccc1 [Compound 194]
[4]
  mortality at 300 ppm: > 75%
[2]
  mortality at 300 ppm: > 75%

## O=C(NN=CC(Cl)=Cc1ccccc1)c1ccccc1F [Compound 195]
[2]
  mortality at 300 ppm: > 75%

## O=C(NN=CC=Cc1ccccc1)c1ccccc1F [Compound 196]
Bean Aphid (aphis fabae)
  mortality at 300 ppm: > 75%

## O=C(NN=CC=Cc1ccccc1F)c1ccccc1F [Compound 197]
[2]
  mortality at 300 ppm: > 75%

## CC(C=NNC(=O)c1ccccc1F)=Cc1cccc(F)c1 [Compound 198]
[2]
  mortality at 300 ppm: > 75%
[1]
  mortality at 300 ppm: > 80%

## CC(C=NNC(=O)c1ccccc1F)=Cc1ccc(F)cc1 [Compound 199]
Bean Aphid (aphis fabae)
  mortality at 300 ppm: > 75%

## CCC(C=NNC(=O)c1cccc(F)c1)=Cc1ccccc1 [Compound 200]
[2]
  mortality at 300 ppm: > 75%

## CC(C=NNC(=O)c1cc(F)ccc1F)=Cc1ccc(F)cc1 [Compound 202]
[4]
  mortality at 300 ppm: > 75%
Bean Aphid (aphis fabae)
  mortality at 300 ppm: > 75%

## CC(C=NNC(=O)c1cc(F)ccc1F)=Cc1cccc(F)c1 [Compound 203]
[4]
  mortality at 300 ppm: > 75%

## CC(C=NNC(=O)c1cc(F)ccc1F)=Cc1ccccc1C [Compound 204]
[2]
  mortality at 300 ppm: > 75%

## CC(C=NNC(=O)c1c(F)cccc1F)=Cc1cccc(F)c1 [Compound 207]
[4]
  mortality at 300 ppm: > 75%

## CC(C=NNC(=O)c1ccc2ccccc2c1)=Cc1cccc(F)c1 [Compound 210]
Bean Aphid (aphis fabae)
  mortality at 300 ppm: > 75%

## CC(C=NNC(=O)c1cc(C(C)C)on1)=Cc1ccccc1 [Compound 235]
[2]
  mortality at 300 ppm: > 75%

## CC(C=NNC(=O)c1cc(C(C)C)on1)=Cc1ccc(F)cc1 [Compound 236]
[4]
  mortality at 300 ppm: > 75%

## CC(C=NNC(=O)c1cc(C(C)C)on1)=Cc1cccc(F)c1 [Compound 237]
[2]
  mortality at 300 ppm: > 75%

## CC(C=NNC(=O)c1cc(C(C)C)no1)=Cc1ccccc1 [Compound 238]
[1]
  mortality at 300 ppm: > 80%

## CC(C=NNC(=O)c1cc(C(C)C)no1)=Cc1cccc(F)c1 [Compound 240]
[4]
  mortality at 300 ppm: > 75%

## CC(C=NNC(=O)c1ccccn1)=Cc1cccc(C)c1 [Compound 253]
Bean Aphid (aphis fabae)
  mortality at 300 ppm: > 75%

## CC(C=NNC(=O)c1cc(Cl)ccn1)=Cc1cccc(F)c1 [Compound 277]
[4]
  mortality at 300 ppm: > 75%

## CC(C=NNC(=O)c1cc(Cl)ccn1)=Cc1ccccc1F [Compound 278]
[2]
  mortality at 300 ppm: > 75%

## CC(C=NNC(=O)c1cnccn1)=Cc1ccccc1F [Compound 314]
[4]
  mortality at 300 ppm: > 75%

## CC(C=NNC(=O)c1ccc(F)cc1F)=Cc1ccccc1 [Compound 318]
[1]
  mortality at 300 ppm: > 80%

## CC(C=NNC(=O)c1ccc(F)cc1F)=Cc1ccc(F)cc1 [Compound 319]
[4]
  mortality at 300 ppm: > 75%

## CC(C=NNC(=O)c1ccc(F)cc1F)=Cc1cccc(F)c1 [Compound 320]
[2]
  mortality at 300 ppm: > 75%

## CC(C=NNC(=O)c1ccc(F)cc1F)=Cc1ccccc1F [Compound 321]
[2]
  mortality at 300 ppm: > 75%

## CCC(C=NNC(=O)c1ccccn1)=Cc1ccccc1F [Compound 392]
[4]
  mortality at 300 ppm: > 75%

## CCC(C=NNC(=O)c1ccccn1)=Cc1ccc(F)cc1 [Compound 393]
[2]
  mortality at 300 ppm: > 75%

## CCC(C=NNC(=O)c1cccc(C)n1)=Cc1ccccc1F [Compound 394]
[4]
  mortality at 300 ppm: > 75%

## CCC(C=NNC(=O)c1cccc(C)n1)=Cc1cccc(F)c1F [Compound 395]
[4]
  mortality at 300 ppm: > 75%

## CC(C=NNC(=O)c1cccc(Cl)n1)=Cc1cccc(F)c1 [Compound 397]
[2]
  mortality at 300 ppm: > 75%

## CC(C=NNC(=O)c1ncccc1F)=Cc1ccccc1 [Compound 398]
[4]
  mortality at 300 ppm: > 75%

## CC(C=NNC(=O)c1ncccc1F)=Cc1ccc(F)cc1 [Compound 399]
[4]
  mortality at 300 ppm: > 75%

## CC(C=NNC(=O)c1cccc(F)n1)=Cc1ccccc1 [Compound 400]
[2]
  mortality at 300 ppm: > 75%
